Test systems include A498; MCF7; EKVX; T47D; SNB-75; HOP-92; HCT-116; Malme-3M; Hs-578T; NCI-H226; BT-549; CAKI-1; MDA-MB-231; SK-OV-3; OVCAR-4; DLD-1; LXFL 529; KM-20L2; M19-MEL.
Common to all, as to test: inhibition of tumour cell growth, NCI panel, 48 h

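Assay format: 96-well plates, 48-hour exposure. GI50 = concentration required for 50% inhibition of growth.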 Active and inactive are the calls of the source. No stated cut-off is given here; in the data, active = GI50 up to about 1.1 µM and inactive = higher. Bounds are passed on as bounds.

Turning to `c1nc2nc[nH]c(SSc3[nH]cnc4ncnc3-4)c-2n1`, the GI50 with A498 is 14.4 µM (inactive); in the assay with MCF7, 0.136 µM (active); in the assay with EKVX it was 88.3 µM (inactive); with T47D, 2.64 µM (inactive); in the assay on SNB-75, 0.463 µM (active); with HOP-92 it was < 0.01 µM (active). Also, the GI50 was 0.41 µM (active) with HCT-116; 0.376 µM (active) in the assay with Malme-3M; 5.89 µM (inactive) in the assay with Hs-578T; 0.476 µM (active) with NCI-H226; 14.1 µM (inactive) in the assay with BT-549.
With `CCSc1nc(N)c2c(-c3ccccc3)c3c(nc2n1)CCC3`, the GI50 in the assay with MCF7, in the assay on EKVX, in the assay with T47D, in the assay with SNB-75, in the assay with HCT-116 and in the assay with CAKI-1 was > 100 µM (inactive) each time. Moreover, the GI50 in the assay with Malme-3M, in the assay on MDA-MB-231, in the assay on Hs-578T, in the assay on SK-OV-3, in the assay with OVCAR-4 and in the assay with BT-549 was > 100 µM (inactive) in each case.
Regarding `CC1CN=C(Nc2cccc(C(F)(F)F)c2)S1` (stereo not given), the GI50 in the assay on A498 was 42 µM (inactive); in the assay with MCF7 it was 44.7 µM (inactive); in the assay on EKVX, 34.1 µM (inactive); with T47D, 54 µM (inactive); with SNB-75 it was 88.1 µM (inactive); in the assay with HCT-116, 41.7 µM (inactive). In addition, the GI50 was > 100 µM (inactive) in the assay with Malme-3M; 28.1 µM (inactive) in the assay on MDA-MB-231; 66.2 µM (inactive) with Hs-578T; 79.3 µM (inactive) with NCI-H226; 94.4 µM (inactive) in the assay with SK-OV-3; 80 µM (inactive) with BT-549.
With `COc1ccc(N2C(=O)CSC2c2c[nH]c3ccccc23)cc1` (stereo not given), the GI50 was 70.1 µM (inactive) in the assay on MCF7; > 100 µM (inactive) in the assay with EKVX; > 100 µM (inactive) with T47D; > 100 µM (inactive) with SNB-75; 52.7 µM (inactive) in the assay on HOP-92; 59.2 µM (inactive) with HCT-116. In addition, the GI50 was 72.9 µM (inactive) in the assay with MDA-MB-231, > 100 µM (inactive) in the assay on SK-OV-3, > 100 µM (inactive) with OVCAR-4 and 85.1 µM (inactive) in the assay with BT-549.
Consider `Nc1ncnc2c1sc1nc3ccccc3n12`, for which the GI50 was > 61.7 µM (inactive) in the assay on A498; 23 µM (inactive) with MCF7; 35.1 µM (inactive) in the assay on EKVX; > 100 µM (inactive) in the assay on T47D; > 100 µM (inactive) in the assay on HOP-92; 33.7 µM (inactive) in the assay on CAKI-1. In addition, the GI50 was > 71.3 µM (inactive) in the assay on Malme-3M; 44.8 µM (inactive) with MDA-MB-231; 12.2 µM (inactive) with Hs-578T; 51.1 µM (inactive) in the assay on NCI-H226; 12.5 µM (inactive) in the assay on SK-OV-3; > 100 µM (inactive) in the assay with OVCAR-4. Moreover, the GI50 in the assay with BT-549 is 80 µM (inactive).
On to `S=C(N/N=C(/c1ccccc1)c1ccccn1)Nc1cccc(Cl)c1`, for which the GI50 with A498 is 2.24 µM (inactive); in the assay on MCF7, 0.091 µM (active); in the assay with EKVX, 0.0513 µM (active); with T47D it was 0.00369 µM (active); in the assay with SNB-75, 0.0569 µM (active); with HOP-92 it was 1.93 µM (inactive). Further, the GI50 with HCT-116 was < 0.0189 µM (active); in the assay on CAKI-1, 0.701 µM (active); with Malme-3M, 0.119 µM (active); in the assay on MDA-MB-231, < 0.0202 µM (active); in the assay on Hs-578T it was 1.52 µM (inactive); in the assay on NCI-H226, 0.508 µM (active). The GI50 with SK-OV-3 was 0.215 µM (active); in the assay on OVCAR-4, 0.0524 µM (active); in the assay with BT-549, 1.05 µM (active).
With `Nc1c(Br)cc2c(c1Br)Cc1cc(Br)ccc1-2`, the GI50 in the assay with A498 was 0.968 µM (active); with MCF7, > 100 µM (inactive); with T47D, > 100 µM (inactive); in the assay with SNB-75, > 100 µM (inactive); with HOP-92 it was > 100 µM (inactive); in the assay with HCT-116, > 100 µM (inactive). Besides, the GI50 with MDA-MB-231, in the assay on Hs-578T, in the assay on NCI-H226, in the assay on SK-OV-3 and with OVCAR-4 was > 100 µM (inactive) in each case.
`Cc1cnc(SCCN2CCN(C)CC2)nc1-c1cc2ccccc2s1`: the GI50 is 15.3 µM (inactive) in the assay with A498; 12.6 µM (inactive) in the assay on DLD-1; 12.2 µM (inactive) in the assay with SNB-75; 5.53 µM (inactive) in the assay on HOP-92; 11.4 µM (inactive) in the assay on HCT-116; 1.51 µM (inactive) with CAKI-1. In addition, the GI50 with Malme-3M is 17 µM (inactive); with NCI-H226 it was 11.9 µM (inactive); in the assay with SK-OV-3, 3.77 µM (inactive); with LXFL 529 it was 13.8 µM (inactive); in the assay on OVCAR-4, 16.7 µM (inactive).
Consider `CCN(CC)c1ccc2cc(C(=O)Nc3ccc4[nH]c(C(=O)N5C[C@@H](CCl)c6c5cc(OC(=O)Nc5ccccc5)c5[nH]cc(C)c65)cc4c3)oc2c1` [CARZELESIN], for which the GI50 in the assay on A498 was 0.00024 µM (active); in the assay on MCF7 it was 9.25e-05 µM (active); with KM-20L2 it was 944 µM (inactive); in the assay on EKVX, 0.000266 µM (active); with SNB-75 it was 284 µM (inactive); in the assay on M19-MEL, 0.000316 µM (active). Also, the GI50 in the assay with HOP-92 was > 1000 µM (inactive); with HCT-116, 152 µM (inactive); with CAKI-1 it was 5.28e-05 µM (active); with Malme-3M, 0.000256 µM (active); in the assay with SK-OV-3, 0.00042 µM (active); in the assay with OVCAR-4 it was 0.000426 µM (active).
For `O=C(N/N=C\C(F)(F)F)c1ccncc1`, the GI50 in the assay on A498 is 46.9 µM (inactive); in the assay on MCF7, 86.3 µM (inactive); in the assay on SNB-75 it was 32.2 µM (inactive); with HOP-92 it was > 100 µM (inactive); in the assay with CAKI-1 it was 42.8 µM (inactive); with Malme-3M, > 100 µM (inactive). Further, the GI50 in the assay with Hs-578T was 38.6 µM (inactive); in the assay on NCI-H226 it was 62.2 µM (inactive); in the assay on SK-OV-3, 31.6 µM (inactive); with OVCAR-4, > 100 µM (inactive); in the assay on BT-549, > 100 µM (inactive).
Take `O=C1CC(=O)N(c2ccccc2)N1/C(=C/c1ccccc1)c1ccccc1`: the GI50 with MCF7 was 21 µM (inactive); with EKVX, 37.6 µM (inactive); in the assay on T47D, 21.3 µM (inactive); in the assay with SNB-75 it was 22 µM (inactive); in the assay with HOP-92, 13.2 µM (inactive); with HCT-116, 16 µM (inactive). For the same compound, the GI50 is 17.3 µM (inactive) with CAKI-1; 10.6 µM (inactive) in the assay on MDA-MB-231; 17.3 µM (inactive) in the assay on Hs-578T; 21.9 µM (inactive) with NCI-H226; 25.6 µM (inactive) in the assay on SK-OV-3; 20.5 µM (inactive) in the assay on OVCAR-4. Also, the GI50 in the assay with BT-549 is 23.6 µM (inactive).
As for `Cc1ccc(C(=O)C2CC3(CCC2(O)c2ccc(C)cc2)CC(=O)Nc2ccccc2C3=O)cc1` (stereo not given), the GI50 with A498 was > 100 µM (inactive); with MCF7, 7.6 µM (inactive); in the assay with EKVX, > 100 µM (inactive); with T47D it was 8.57 µM (inactive); with SNB-75 it was 13.5 µM (inactive); in the assay with HOP-92, 19.4 µM (inactive). Moreover, the GI50 was 62.7 µM (inactive) in the assay on HCT-116; > 100 µM (inactive) with CAKI-1; > 100 µM (inactive) with Malme-3M; > 100 µM (inactive) in the assay with MDA-MB-231; 41.1 µM (inactive) with Hs-578T; > 100 µM (inactive) with NCI-H226. The GI50 in the assay on SK-OV-3 and with BT-549 was > 100 µM (inactive) in each case.
As to `COc1ccc(-c2cc(-c3ccccc3)c(C#N)c(=O)n2C2OC(CO)C(O)C(O)C2O)cc1` (stereo not given), the GI50 in the assay on A498, in the assay on DLD-1, in the assay with KM-20L2, with EKVX, with M19-MEL and in the assay on HCT-116 was > 100 µM (inactive) throughout. For the same compound, the GI50 in the assay with Malme-3M, with NCI-H226, with SK-OV-3, in the assay on LXFL 529 and with OVCAR-4 was > 100 µM (inactive) each time.
For the compound `Nc1nc(=O)n(CC(O)CO)s1` (stereo not given), the GI50 in the assay on A498, in the assay on DLD-1, with KM-20L2, in the assay on EKVX, in the assay with SNB-75 and in the assay on M19-MEL was > 100 µM (inactive) throughout. In addition, the GI50 in the assay with HCT-116, in the assay on Malme-3M, in the assay with NCI-H226, in the assay on LXFL 529 and with OVCAR-4 was > 100 µM (inactive) each time.
As to `Cc1cccc(C)c1NC(=S)N/C=C(\C#N)C(N)=O`, the GI50 in the assay with MCF7, with EKVX, with HOP-92, with HCT-116, with CAKI-1 and in the assay on Malme-3M was > 100 µM (inactive) each time. For the same compound, the GI50 with MDA-MB-231, with Hs-578T, in the assay on NCI-H226, in the assay on SK-OV-3 and in the assay with OVCAR-4 was > 100 µM (inactive) each time.
As for `COc1nc(-c2cn(S(=O)(=O)c3ccc(C)cc3)c3ccc(Br)cc23)cc(C(F)(F)F)c1C#N`, the GI50 was 52.5 µM (inactive) with A498; 50.4 µM (inactive) in the assay with MCF7; 40 µM (inactive) in the assay on EKVX; 19.5 µM (inactive) in the assay on T47D; 23.3 µM (inactive) in the assay with SNB-75; 31.3 µM (inactive) in the assay with HOP-92. The GI50 in the assay on CAKI-1 is 45.2 µM (inactive); with Malme-3M it was > 100 µM (inactive); with NCI-H226, 18 µM (inactive); in the assay on SK-OV-3, 21 µM (inactive); with OVCAR-4, 41.4 µM (inactive); with BT-549 it was 24.5 µM (inactive).
